# Measurements from PMC11325084, “Pharmacokinetics and tissue distribution of LN002, a new compound alternative oxidase inhibitor against Cryptosporidium in rats” (Frontiers in Pharmacology, 2024).
# Test: Tissue distribution of LN002 after oral administration in rats
# Format: in vivo, Sprague–Dawley (SD) rats
# Conditions: oral 200 mg/kg; for Cmax / Tmax / half-life: both sexes, Sprague-Dawley, rat; for Cmax / Tmax / half-life / AUC0-24 h: SD rats
# Procedure: Thirty SD rats (15 for each sex) were randomly and equally assigned to 5 groups (half male and half female). The rats in each group were euthanized with pentobarbital sodium (a dose of 180 mg/kg) at five different time points: 0.5, 2, 6, 12 and 24 h after oral administration at 200 mg/kg LN002. Subsequently, various tissues, including the heart, liver, spleen, lungs, kidneys, brain, muscles, small intestine, and intestinal contents, were promptly collected ([Verma et al., 2022]). The dissected tissues were rinsed with normal saline, dried with an absorbent paper, homogenized using a tissue homogenizer, and stored at a temperature of −20°C until further analysis.
# Tissue samples and intestinal contents were accurately weighed to 0.5 ± 0.02 g in a 10 mL EP tube and added with 2 mL of extraction solvent (acetonitrile: methanol [2:1, v/v]). The extraction solvent was vortexed for 1 min and centrifuged at 6,000 rpm and 4°C for 10 min. The supernatant was transferred to a new test tube and vortexed after adding 2 mL of water. The sample was purified using solid-phase extraction (SPE) using methanol as the extraction solvent. The Poly-Sery MAX SPE Cartridge (Shanghai Anpu Experimental Technology Co., Ltd., Shanghai, China) was added with 3 mL of methanol to activate, 3 mL of water to rinse, and the abovementioned extraction solvent. Afterward, 2 mL of 10% methanol water was poured into extraction columns to elute impurities. Finally, 1.5 mL of methanol was added to elute the compound and collect the eluent. Twenty microliters of the eluent was passed through a 0.22 μm filter membrane and then injected into the HPLC system for analysis.
# A Shimadzu LC-20A system (Shimadzu Technologies, Kyoto, Japan) equipped with a LabSolutions system (version 5.1) system was used for HPLC analysis. The separation process utilized an ARD-C18 column (250 mm × 4.6 mm, 5 µm) (Zhongpu Technology Co., Ltd., Fuzhou, China). The analytes were detected using a UV detector at 333 nm. The chromatographic conditions used an isocratic mobile phase that combines methanol (solvent A) and deionized water (solvent B) (75:25, v/v), and they were propelled through the column at a constant flow rate of 1 mL/min, ensuring uniform separation. The injection volume was 20 μL. The temperature of the column was set to 40°C.
# Pharmacokinetic data were obtained via non-compartmental PK analysis of total concentration versus time profiles for plasma using Phoenix WinNonlin 8.2 (Certara, L.P., Princeton, NJ, United States). Statistical analysis and graphing were undertaken using GraphPad Prism 9.5 for Windows (GraphPad Software, Inc., La Jolla, CA, United States).
# [1] = intestinal contents, n = 6, mean ± SD
smiles,measurement,setting,value
"N#C/C(=C\c1c[nH]nc1-c1ccccc1)c1nn(-c2ccccc2)c(N)c1C#N [LN002, 5-amino-3-[1-cyano-2-(3-phenyl-4-vinopyrazole))-1-phenyl-4-vinopyrazole]",Cmax,"brain, n = 6, mean ± SD",456 ± 80.9 ng/g
same,Tmax,"brain, n = 6, mean ± SD",0.58 ± 0.19 h
same,half-life,"brain, n = 6, mean ± SD",5.2 ± 2.31 h
same,Cmax,"heart, n = 6, mean ± SD",972 ± 165 ng/g
same,Tmax,"heart, n = 6, mean ± SD",0.57 ± 0.11 h
same,half-life,"heart, n = 6, mean ± SD",6.82 ± 1.65 h
same,Cmax,[1],4.45e+06 ng/g
same,Tmax,[1],3.33 ± 1.6 h
same,half-life,[1],1.64 ± 0.01 h
same,Cmax,"intestine, n = 6, mean ± SD",607000 ng/g
same,Tmax,"intestine, n = 6, mean ± SD",2.67 ± 1.49 h
same,half-life,"intestine, n = 6, mean ± SD",5.48 ± 1.48 h
same,Tmax,"kidney, n = 6",0.5 h
same,Cmax,"kidney, n = 6, mean ± SD",561 ± 135 ng/g
same,half-life,"kidney, n = 6, mean ± SD",5.03 ± 1.52 h
same,Cmax,"liver, n = 6, mean ± SD",478 ± 157 ng/g
same,Tmax,"liver, n = 6, mean ± SD",0.67 ± 0.19 h
same,half-life,"liver, n = 6, mean ± SD",5.54 ± 0.66 h
same,Cmax,"lung, n = 6, mean ± SD",8700 ± 1410 ng/g
same,Tmax,"lung, n = 6, mean ± SD",2.09 ± 0.43 h
same,half-life,"lung, n = 6, mean ± SD",5.43 ± 1.6 h
same,Cmax,"muscle, n = 6, mean ± SD",3980 ± 589 ng/g
same,Tmax,"muscle, n = 6, mean ± SD",0.58 ± 0.19 h
same,half-life,"muscle, n = 6, mean ± SD",6.3 ± 2.71 h
same,Tmax,"spleen, n = 6",0.5 h
same,Cmax,"spleen, n = 6, mean ± SD",645 ± 187 ng/g
same,half-life,"spleen, n = 6, mean ± SD",5.8 ± 1.93 h
same,AUC0-24 h,"brain, n = 6, mean ± SD",1328.60 ± 176.19 h⋅ng/g
same,AUC0-24 h,"heart, n = 6, mean ± SD",3855.84 ± 323.04 h⋅ng/g
same,AUC0-24 h,[1],"35080673.50 ± 644,065.57 h⋅ng/g"
same,AUC0-24 h,"intestine, n = 6, mean ± SD","2185750.70 ± 149,399.23 h⋅ng/g"
same,AUC0-24 h,"kidney, n = 6, mean ± SD",1781.24 ± 453.85 h⋅ng/g
same,AUC0-24 h,"liver, n = 6, mean ± SD",4051.62 ± 586.44 h⋅ng/g
same,AUC0-24 h,"lung, n = 6, mean ± SD","84,344.09 ± 9677.76 h⋅ng/g"
same,AUC0-24 h,"muscle, n = 6, mean ± SD","12,634.31 ± 2366.24 h⋅ng/g"
same,Rank order of concentration in tissues and intestinal contents,rats,"intestinal contents, followed by the small intestine, lung, muscle, heart, liver, spleen, kidney, and brain"
same,Detection in tissues at the last time point (in words),"rats, 24 h",detected at 24 h in all tissues and intestinal contents
same,AUC0-24 h,"spleen, n = 6, mean ± SD",2280.55 ± 418.06 h⋅ng/g
